For series [1], the system named is HIV-1 wild-type reference strain NL4-3. Nature of the series: Anti-HIV-1 activity in TZM-bl cell line. It is filed as cell-based. The conditions noted are these: 48 h. On the procedure: The antiviral activity of the investigated compound was evaluated by measuring the IC50 values against the HIV-1 wild-type reference strain NL4-3 in a TZM-bl cell line-based phenotypic assay, as previously published. Briefly, 15,000 cells/well were infected with the wild-type NL4-3 strain at multiplicity of infection (MOI) of 0.1 in the presence of serial diluitions of the drug in a 96-well plate format. […] Each compound was tested in duplicate and tested in two independent experiments. After 48 h, the cells were detached with the Glo-Lysis buffer (Promega, Madison, WI, USA), and the Bright-Glo Luciferase reagent (Promega) was added to each well as indicated by the manufacturer. Finally, the relative luminescence units were measured using the GloMax Discover instrument (Promega) as previously described and processed with GraphPad software to calculate half-maximal inhibitory concentration (IC50) values.

A short description of series [2]: Cytotoxicity, CellTiter-Glo 2.0. It counts as cell-based. The conditions noted are these: human, TZM-bl cells. On the procedure: (§1) Cytotoxicity was determined by the CellTiter-Glo 2.0 Luminescent Cell Viability Assay (Promega) according to the manufacturer’s protocol. Briefly, 15,000 cells/well of Tzm-bl were exposed to serial diluition of the drug and after 48 h, cell viability was calculated by measuring cellular ATP through a luciferase-based chemical reaction. The luminescent signal obtained from cells treated with serial dilution of the tested compounds, or the control (DMSO), was measured using the GloMax® Discover Multimode Microplate Reader (Promega) and processed with GraphPad PRISM software to calculate the half-maximal cytotoxic concentration (CC50). The DMSO curve, used as a control, was added in each plate and SPK-3 was tested in duplicate. The non-toxic dose corresponding to 90–100% cell viability was used as the maximum concentration in the antiviral assays.

Series [3] can be described thus: Compound UV–VIS spectra in the presence of MgCl2 (chelation). It is filed as physicochemical. The conditions noted are these: 6 mM MgCl2, UV–VIS 250–600 nm. The method, then:
The ability of compounds to chelate the MgCl2 was measured using 15% ethanol and 15 mM Tris HCl pH 7.8 (in 1 mL of volume). The UV–VIS spectrum was recorded, before and after the addition of 6 mM MgCl2, from 250 nm to 600 nm.

For series [4], the target named is T1, HIV-1 RT-associated RNase H (Human immunodeficiency virus type 1 group M subtype B, UniProt P04585).
T1 construct: His-tagged p66/p51 HIV-1 RT was expressed in E. coli strain M15; His; made in house; host or cells: Escherichia coli M15
The series can be described thus: RT-associated RNase H assay. It is filed as biochemical. The conditions noted are these: pure compounds; mean ± SD of three independent experiments. The method, then: (§2) Recombinant 6xHis IN protein, FLAG-IN, His-LEDGF and FLAG-LEDGF were expressed in Escherichia coli strain BL21 (DE3) and purified as previously described. His-tagged p66/p51 HIV-1 RT was expressed in E. coli strain M15 and purified as previously described.
The HIV-1 RNase H activity was determined as described by Esposito et al.. Briefly, 100 µL of volume of reaction containing 50 mM Tris HCl pH 7.8, 6 mM MgCl2, 1 mM DTT, 80 mM KCl, hybrid RNA/DNA (5′-[…]-3′-Fluorescein, 5′-[…]-3′-Dabcyl), and 3.8 nM RT was incubated for 1 h at 37 °C. The reaction was stopped by the addition of EDTA and measured with a plate reader at 490/528 nm.

Series [5] has as its target T2, HIV-1 IN in the presence of LEDGF/p75 cellular cofactor (Human immunodeficiency virus type 1 group M subtype B, UniProt P04585).
T2 construct: Recombinant 6xHis IN protein, FLAG-IN, His-LEDGF and FLAG-LEDGF were expressed in Escherichia coli strain BL21 (DE3); made in house; host or cells: Escherichia coli BL21 (DE3)
Nature of the series: HTRF LEDGF-dependent HIV-1 IN activity assay. It counts as biochemical. The conditions noted are these: pure compounds; mean ± SD of three independent experiments. The method, then: as §2
(§3) The evalaution of 3′-processing and strand-transfer IN reactions in the presence or in the absence of recombinant LEDGF/p75 cellular cofactor were performed as described previously. Briefly, recombinant IN was pre-incubated for 1 h at room temperature, in a buffer containing 20 mM HEPES pH 7.5, 1 mM DTT, 1% Glycerol, 20 mM MgCl2, 0.05% Brij-35 and 0.1 mg/mL BSA and increasing concentrations of the tested compounds.
(§4) Then, 9 nM Biotin3′-DNA donor substrate 50 nM 5′-Cy5-DNA acceptor substrate and 50 nM LEDGF/p75 protein (when required) were added to this reaction and incubated at 37 °C for 90 min.
(Time-resolved FRET reads energy transfer from a long-lived donor to a nearby acceptor.)

The target in series [6] is HIV-1 IN–IN subunit exchange (Human immunodeficiency virus type 1 group M subtype B, UniProt P04585). The series can be described thus: biochemical. It is filed as binding. The method, then:
(§5) This IN–IN binding assay allows the verification of higher-order, aberrant IN multimerization or IN–IN subunit exchange. Briefly, His and FLAG-tagged IN enzymes were added in a buffer containing 25 mM Tris pH 7.4, 150 mM NaCl, 2 mM MgCl2, 0.1% Nonidet P-40, and 1 mg/mL BSA [12, 48] with different concentrations of compounds, and incubated for 2.5 h at room temperature. After this time, a mixture of two specific antibodies (anti-His6-XL665 and anti-FLAG-EuCryptate) was added to the reaction and incubated at room temperature for 3 h. The HTRF signal was recorded as described in the previous paragraph.
(§6) The analysis of the signal in order to evaluate the aberrant IN multimerization and interference with the IN–IN subunit exchange or functional IN–IN interactions was performed as described above.

In series [7] the target is T3, HIV-1 IN in the absence of LEDGF (Human immunodeficiency virus type 1 group M subtype B, UniProt P04585).
T3 construct: Recombinant 6xHis IN protein, FLAG-IN, His-LEDGF and FLAG-LEDGF were expressed in Escherichia coli strain BL21 (DE3); made in house; host or cells: Escherichia coli BL21 (DE3)
The series can be described thus: biochemical. It is filed as biochemical. On the procedure:
as §2, §3, §4

Series [8] deals with T4, HIV-1 IN multimerization.
T4 construct: His and FLAG-tagged IN enzymes were added in a buffer containing 25 mM Tris pH 7.4; made in house; host or cells: Escherichia coli BL21 (DE3)
It counts as binding. The settings on record: concentration for 50% of the multimerization increase. The method, then: as §5, §6

Series [9] has as its target HIV-1 IN–LEDGF interaction (Human immunodeficiency virus type 1 group M subtype B, UniProt P04585). Nature of the series: biochemical. It is filed as binding. The method, then:
Recombinant His-IN was pre-incubated for 30 min at room temperature in the presence of the tested compounds in a mixture reaction composed of 150 mM NaCl, 2 mM MgCl2, 0.1% Nonidet P-40, 1 mg/mL BSA, and 25 mM Tris pH 7.4 [12, 48]. After this time, FLAG-LEDGF was added and the mixture was incubated for 30 min at room temperature. A mixture of two specific antibodies (anti-His6-XL665 and anti-FLAG-EuCryptate) was then added to the reaction and incubated for 4 h at 4 °C.

Series [10] concerns TZM-bl cells. The series can be described thus: Cytotoxicity, CellTiter-Glo 2.0. It is filed as cell-based. The conditions noted are these: 48 h. On the procedure:
as §1
(In general: ATP-based viability assays read luminescence as a measure of living cells.)

This is an account of results in paper PMC10457970, “HIV-1 Integrase Inhibition Activity by Spiroketals Derived from Plagius flosculosus, an Endemic Plant of Sardinia (Italy) and Corsica (France)” (Pharmaceuticals, 2023).

Values joined by “and” are separate entries in the source; they are usually repeats but may differ in a detail not shown here. Identical values can stand only once. A value given as a limit tells only on which side of the number the result lay.

Broadly, the EC50 is the concentration that produces a half-maximal response. In general, CC50 refers to the concentration giving 50% cytotoxicity. For orientation: IC50 means the concentration that gives 50% inhibition.

With `Cc1nnc(C(=O)NC(C)(C)c2nc(C(=O)NCc3ccc(F)cc3)c(O)c(=O)n2C)o1` [Raltegravir, reference compound], in series [1] (Human immunodeficiency virus 1, NL43, TZM-bl, read-out: EC50 inhibiting HIV-1 viral replication), the EC50 is 0.0087 µM. The CC50 at 48 h in series [2] is more than 100 µM.

As for `CC#CC#C/C=C1\C=CC2(OC=CC2OC(C)=O)O1` (stereo not shown) [SPK2], in [3], the “shift in the maximum of absorbance in the presence of Mg2+” value (“shift in the maximum of absorbance” for short) amounted to 4.5 nm. The IC50 in [4] was 20 ± 6.1 µM; in [5] it was 14.7 ± 0.3 µM.

Consider `CCOC(=O)C(=O)CC(=O)/C=C/c1cccn1Cc1ccc(F)cc1` [RDS1643, reference compound], for which the “shift in the maximum of absorbance” value in series [3] was found to be 16 nm.

Regarding `CC#CC#C/C=C1/O[C@@]2(OC=C[C@H]2OC(C)=O)[C@@H](O)[C@@H]1Cl` [SPK3, flosculin A], the IC50 in [6] was more than 100 µM; in series [7] (absence of LEDGF, read-out: LEDGF-Independent IN Activity IC50), 27.3 ± 2.3 µM; in series [4], 3.6 ± 0.6 µM; in series [5] it was 1.46 ± 0.16 µM; in series [9] (read-out: IN–LEDGF Binding IC50), more than 100 µM. In addition, in series [6], the “IN–IN Subunit Exchange IC50” value is reported as “without any effect”. Also, in series [7] (ratio LEDGF-independent / LEDGF-dependent IC50), the “decrease in potency on HIV-1 IN in the absence vs presence of LEDGF/p75” value is 18.7 fold. In addition, the “shift in the maximum of absorbance” value in series [3] was determined as 3 nm. Moreover, in series [1] (NL4-3, TZM-bl, two independent experiments), the “EC50 inhibiting HIV-1 viral replication” value is “did not inhibit”. Also, the “IN Multimerization MI50” value in [8] was 1 µM and 1.00 ± 0.01 µM. Also, the “IN–LEDGF Binding IC50” value in series [9] is “did not inhibit”. The molecule also gave a CC50 at 48 h in [2] of 50 µM. In series [10], this molecule showed a CC50 of 50.1 ± 4.3 µM.

Consider `CC#CC#C/C=C1\C=CC2(CCCO2)O1` (stereo not shown) [SPK1, tonghaosu], for which the “shift in the maximum of absorbance” value in series [3] amounted to 3.5 nm. For the same molecule, the results for the IC50 in series [4] and in series [5] were 10 ± 5.4 µM and 1.69 ± 0.38 µM, respectively.
